# Results taken from publication PMC8001353, “Tryptophanol-Derived Oxazolopyrrolidone Lactams as Potential Anticancer Agents against Gastric Adenocarcinoma” (Pharmaceuticals, 2021).
# Test system: human gastric adenocarcinoma (AGS) cell line
# Assay: MTT reduction assay, cell viability / cytotoxicity in AGS cell line
# Assay type: cell-based
# Settings: AGS cell line, cell viability, MTT, 48 h incubation, 100 µM, mean ± SD
# Experimental: The cytotoxicity was assessed in different cell lines with the endpoint MTT, using previously reported procedure. The following cells were obtained from the American Type Culture Collection: human embryonic kidney epithelial cell line (HEK 293T, ATCC HBT-22™), breast cancer cell line (MDA-MB-231, ATCC HTB-26™), osteosarcoma cell line (MG-63, ATCC CRL-1427™), gastric adenocarcinoma cell line (AGS, ATTC CRL-1739TM), prostate cancer cell line (DU-145, ATTC HTB-81™), and lung carcinoma cell line (A-549, ATCC CCL-185™). All cell lines were seeded at 2 × 10^4 cells/well with exception of A-549 cell line, which was seeded at 5 × 10^3 cells/well.
row,SMILES,% CV at 100 µM [%]
1,"O=C1CC[C@]2(c3ccccc3)OC[C@@H](Cc3c[nH]c4ccccc34)N12 [Compound 7a, (3R,7aR)-3-((1H-indol-3-yl)methyl)-7a-phenyltetrahydropyrrolo[2,1-b]oxazol-5(6H)-one]",50 ± 5
2,"O=C1CC[C@]2(c3ccc(F)cc3)OC[C@@H](Cc3c[nH]c4ccccc34)N12 [Compound 7b, (3R,7aR)-3-((1H-indol-3-yl)methyl)-7a-(4-fluorophenyl)tetrahydropyrrolo[2,1-b]oxazol-5(6H)-one]",50 ± 8
3,"O=C1CC[C@]2(c3ccc(Cl)cc3)OC[C@@H](Cc3c[nH]c4ccccc34)N12 [Compound 7c, (3R,7aR)-3-((1H-indol-3-yl)methyl)-7a-(4-chlorophenyl)tetrahydropyrrolo[2,1-b]oxazol-5(6H)-one]",6 ± 1
4,"O=C1CC[C@]2(c3ccc(Br)cc3)OC[C@@H](Cc3c[nH]c4ccccc34)N12 [Compound 7d, (3R,7aR)-3-((1H-indol-3-yl)methyl)-7a-(4-bromophenyl)tetrahydropyrrolo[2,1-b]oxazol-5(6H)-one]",14 ± 3
5,"Cc1ccc([C@]23CCC(=O)N2[C@H](Cc2c[nH]c4ccccc24)CO3)cc1 [Compound 7e, (3R,7aR)-3-((1H-indol-3-yl)methyl)-7a-(p-tolyl)tetrahydropyrrolo[2,1-b]oxazol-5(6H)-one]",14 ± 2
6,"COc1ccc([C@]23CCC(=O)N2[C@H](Cc2c[nH]c4ccccc24)CO3)cc1 [Compound 7f, (3R,7aR)-3-((1H-indol-3-yl)methyl)-7a-(4-methoxyphenyl)tetrahydropyrrolo[2,1-b]oxazol-5(6H)-one]",18 ± 2
7,"CS(=O)(=O)c1ccc([C@]23CCC(=O)N2[C@H](Cc2c[nH]c4ccccc24)CO3)cc1 [Compound 7g, (3R,7aR)-3-((1H-indol-3-yl)methyl)-7a-(4-(methylsulfonyl)phenyl)tetrahydropyrrolo[2,1-b]oxazol-5(6H)-one]",94 ± 12
8,"O=C1CC[C@@]2(c3ccccc3)OC[C@H](Cc3c[nH]c4ccccc34)N12 [Compound 8a, (3S,7aS)-3-((1H-indol-3-yl)methyl)-7a-phenyltetrahydropyrrolo[2,1-b]oxazol-5(6H)-one]",58 ± 4
9,"O=C1CC[C@@]2(c3ccc(F)cc3)OC[C@H](Cc3c[nH]c4ccccc34)N12 [Compound 8b, (3S,7aS)-3-((1H-indol-3-yl)methyl)-7a-(4-fluorophenyl)tetrahydropyrrolo[2,1-b]oxazol-5(6H)-one]",22 ± 4
10,"O=C1CC[C@@]2(c3ccc(Cl)cc3)OC[C@H](Cc3c[nH]c4ccccc34)N12 [Compound 8c, (3S,7aS)-3-((1H-indol-3-yl)methyl)-7a-(4-chlorophenyl)tetrahydropyrrolo[2,1-b]oxazol-5(6H)-one]",11 ± 1
11,"O=C1CC[C@@]2(c3ccc(Br)cc3)OC[C@H](Cc3c[nH]c4ccccc34)N12 [Compound 8d, (3S,7aS)-3-((1H-indol-3-yl)methyl)-7a-(4-bromophenyl)tetrahydropyrrolo[2,1-b]oxazol-5(6H)-one]",25 ± 4
12,"Cc1ccc([C@@]23CCC(=O)N2[C@@H](Cc2c[nH]c4ccccc24)CO3)cc1 [Compound 8e, (3S,7aS)-3-((1H-indol-3-yl)methyl)-7a-(p-tolyl)tetrahydropyrrolo[2,1-b]oxazol-5(6H)-one]",60 ± 3
13,"COc1ccc([C@@]23CCC(=O)N2[C@@H](Cc2c[nH]c4ccccc24)CO3)cc1 [Compound 8f, (3S,7aS)-3-((1H-indol-3-yl)methyl)-7a-(4-methoxyphenyl)tetrahydropyrrolo[2,1-b]oxazol-5(6H)-one]",30 ± 4
14,"CS(=O)(=O)c1ccc([C@@]23CCC(=O)N2[C@@H](Cc2c[nH]c4ccccc24)CO3)cc1 [Compound 8g, (3S,7aS)-3-((1H-indol-3-yl)methyl)-7a-(4-(methylsulfonyl)phenyl)tetrahydropyrrolo[2,1-b]oxazol-5(6H)-one]",91 ± 11

# Same assay, conditions: Homo sapiens; AGS cell line, cell viability, MTT, 48 h incubation, 50 µM, mean ± SD; read-out: % CV at 50 µM
row,SMILES,viability at 50 µM [%]
1,"O=C1CC[C@]2(c3ccc(Cl)cc3)OC[C@@H](Cc3c[nH]c4ccccc34)N12 [Compound 7c, (3R,7aR)-3-((1H-indol-3-yl)methyl)-7a-(4-chlorophenyl)tetrahydropyrrolo[2,1-b]oxazol-5(6H)-one]",11 ± 1
2,"Cc1ccc([C@]23CCC(=O)N2[C@H](Cc2c[nH]c4ccccc24)CO3)cc1Cl [Compound 7h, (3R,7aR)-3-((1H-indol-3-yl)methyl)-7a-(3-chloro-4-methylphenyl)tetrahydropyrrolo[2,1-b]oxazol-5(6H)-one]",11 ± 2
3,"COc1ccc([C@]23CCC(=O)N2[C@H](Cc2c[nH]c4ccccc24)CO3)cc1F [Compound 7i, (3R,7aR)-3-((1H-indol-3-yl)methyl)-7a-(3-fluoro-4-methoxyphenyl)tetrahydropyrrolo[2,1-b]oxazol-5(6H)-one]",84 ± 7
4,CC1CC(=O)N2C(Cc3c[nH]c4ccccc34)COC12c1ccc(Cl)cc1 (stereo not drawn) [Compound 7j],8
5,"CCn1cc(C[C@@H]2CO[C@@]3(c4ccc(Cl)cc4)CCC(=O)N23)c2ccccc21 [Compound 7k, (3R,7aR)-7a-(4-chlorophenyl)-3-((1-ethyl-1H-indol-3-yl)methyl)tetrahydropyrrolo[2,1-b]oxazol-5(6H)-one]",40 ± 5
6,"CC(=O)n1cc(C[C@@H]2CO[C@@]3(c4ccc(Cl)cc4)CCC(=O)N23)c2ccccc21 [Compound 7l, (3R,7aR)-3-((1-acetyl-1H-indol-3-yl)methyl)-7a-(4-chlorophenyl)tetrahydropyrrolo[2,1-b]oxazol-5(6H)-one]",63 ± 13
7,"CC(C)(C)OC(=O)n1cc(C[C@@H]2CO[C@@]3(c4ccc(Cl)cc4)CCC(=O)N23)c2ccccc21 [Compound 7m, tert-butyl 3-(((3R,7aR)-7a-(4-chlorophenyl)-5-oxohexahydropyrrolo[2,1-b]oxazol-3-yl)methyl)-1H-indole-1-carboxylate]",61 ± 9
8,"O=C1CC[C@]2(c3ccc(-c4ccc(Cl)cc4)cc3)OC[C@@H](Cc3c[nH]c4ccccc34)N12 [Compound 7n, (3R,7aR)-3-((1H-indol-3-yl)methyl)-7a-(4’-chloro-[1,1’-biphenyl]-4-yl)tetrahydropyrrolo[2,1-b]oxazol-5(6H)-one]",65 ± 13
9,"O=C1CC[C@]2(c3ccc(-c4ccc(O)cc4)cc3)OC[C@@H](Cc3c[nH]c4ccccc34)N12 [Compound 7p, (3R,7aR)-3-((1H-indol-3-yl)methyl)-7a-(4’-hydroxy-[1,1’-biphenyl]-4-yl)tetrahydropyrrolo[2,1-b]oxazol-5(6H)-one]",56 ± 1
10,"O=C1CC[C@]2(c3ccc(-c4ccc(CO)cc4)cc3)OC[C@@H](Cc3c[nH]c4ccccc34)N12 [Compound 7q, (3R,7aR)-3-((1H-indol-3-yl)methyl)-7a-(4’-(hydroxymethyl)-[1,1’-biphenyl]-4-yl)tetrahydropyrrolo[2,1-b]oxazol-5(6H)-one]",55 ± 1
11,"O=C1CC[C@]2(c3ccc(-c4cccc(Cl)c4)cc3)OC[C@@H](Cc3c[nH]c4ccccc34)N12 [Compound 7r, (3R,7aR)-3-((1H-indol-3-yl)methyl)-7a-(3’-chloro-[1,1’-biphenyl]-4-yl)tetrahydropyrrolo[2,1-b]oxazol-5(6H)-one]",17 ± 1
12,"O=C1CC[C@]2(c3ccc(-c4ccncc4)cc3)OC[C@@H](Cc3c[nH]c4ccccc34)N12 [Compound 7t, (3R,7aR)-3-((1H-indol-3-yl)methyl)-7a-(4-(pyridin-4-yl)phenyl)tetrahydropyrrolo[2,1-b]oxazol-5(6H)-one]",75 ± 14
13,"O=C1CC[C@]2(c3ccc(-c4ccc5c(c4)OCCO5)cc3)OC[C@@H](Cc3c[nH]c4ccccc34)N12 [Compound 7u, (3R,7aR)-3-((1H-indol-3-yl)methyl)-7a-(4-(2,3-dihydrobenzo[b][1, 4]dioxin-6-yl)phenyl)tetrahydropyrrolo[2,1-b]oxazol-5(6H)-one]",67 ± 6
